In the NIST ThermoML archive (doi:10.1021/acs.jced.6b00269):
Numbers after ± are expanded uncertainties.

Conditions: for Normal melting temperature: Crystal, DTA; for viscosity / mass density: 101.33 kPa, Liquid; for viscosity: Cone and plate viscometry; for mass density: Vibrating tube method; for Glass transition temperature: DSC

CCC=C[P+](CC)(CC)CC.O=S(=O)([N-]S(=O)(=O)C(F)(F)F)C(F)(F)F
Normal melting temperature: 49 ± 2 °C

CCCCCCCCCCCCCC[P+](CCCCCC)(CCCCCC)CCCCCC.O=S(=O)([N-]S(=O)(=O)C(F)(F)F)C(F)(F)F
viscosity (278.15 K): 1210 ± 110 mPa·s | viscosity (283.15 K): 841 ± 71 mPa·s | mass density (283.15 K): 1076.1 ± 6.3 kg/m3 | viscosity (288.15 K): 594 ± 48 mPa·s | mass density (288.15 K): 1072.4 ± 6.2 kg/m3 | viscosity (293.15 K): 430 ± 33 mPa·s | mass density (293.15 K): 1068.8 ± 6.2 kg/m3 | mass density (295.15 K): 1067.3 ± 6.2 kg/m3 | viscosity (298.15 K): 318 ± 24 mPa·s | mass density (298.15 K): 1065.1 ± 6.1 kg/m3 | viscosity (303.15 K): 241 ± 17 mPa·s | mass density (303.15 K): 1061.5 ± 6.1 kg/m3 | viscosity (308.15 K): 185 ± 13 mPa·s | mass density (308.15 K): 1057.9 ± 6.1 kg/m3 | viscosity (313.15 K): 145 ± 10 mPa·s | mass density (313.15 K): 1054.4 ± 6 kg/m3 | viscosity (318.15 K): 115 ± 8 mPa·s | mass density (318.15 K): 1050.8 ± 6 kg/m3 | viscosity (323.15 K): 92 ± 6 mPa·s | mass density (323.15 K): 1047.3 ± 5.9 kg/m3 | viscosity (328.15 K): 76 ± 5 mPa·s | mass density (328.15 K): 1043.7 ± 5.9 kg/m3 | viscosity (333.15 K): 63 ± 4 mPa·s | mass density (333.15 K): 1040.1 ± 5.9 kg/m3 | mass density (338.15 K): 1036.6 ± 5.8 kg/m3 | mass density (343.15 K): 1033 ± 5.8 kg/m3 | mass density (348.15 K): 1029.5 ± 5.7 kg/m3 | mass density (353.15 K): 1026 ± 5.7 kg/m3 | Glass transition temperature: -82 ± 2 °C

CCCCCCCCSC(N(C)C)=[N+](C)C.O=S(=O)([N-]S(=O)(=O)C(F)(F)F)C(F)(F)F
viscosity (278.15 K): 356 ± 27 mPa·s | viscosity (283.15 K): 254 ± 19 mPa·s | mass density (283.15 K): 1309.6 ± 9.4 kg/m3 | viscosity (288.15 K): 186 ± 13 mPa·s | mass density (288.15 K): 1305.2 ± 9.3 kg/m3 | viscosity (293.15 K): 140 ± 10 mPa·s | mass density (293.15 K): 1301 ± 9.2 kg/m3 | mass density (295.15 K): 1299.3 ± 9.2 kg/m3 | viscosity (298.15 K): 108 ± 7 mPa·s | mass density (298.15 K): 1296.7 ± 9.2 kg/m3 | viscosity (303.15 K): 85 ± 6 mPa·s | mass density (303.15 K): 1292.4 ± 9.1 kg/m3 | viscosity (308.15 K): 69 ± 5 mPa·s | mass density (308.15 K): 1288.2 ± 9 kg/m3 | viscosity (313.15 K): 56 ± 4 mPa·s | mass density (313.15 K): 1284 ± 9 kg/m3 | mass density (318.15 K): 1279.7 ± 8.9 kg/m3 | mass density (323.15 K): 1275.5 ± 8.9 kg/m3 | mass density (328.15 K): 1271.3 ± 8.8 kg/m3 | mass density (333.15 K): 1267.1 ± 8.8 kg/m3 | mass density (338.15 K): 1262.9 ± 8.7 kg/m3 | mass density (343.15 K): 1258.7 ± 8.6 kg/m3 | mass density (348.15 K): 1254.6 ± 8.6 kg/m3 | mass density (353.15 K): 1250.4 ± 8.5 kg/m3 | Glass transition temperature: -82 ± 2 °C

CCCCCCSC(N(C)C)=[N+](C)C.O=S(=O)([N-]S(=O)(=O)C(F)(F)F)C(F)(F)F
viscosity (278.15 K): 268 ± 20 mPa·s | viscosity (283.15 K): 193 ± 14 mPa·s | mass density (283.15 K): 1352.2 ± 10 kg/m3 | viscosity (288.15 K): 143 ± 10 mPa·s | mass density (288.15 K): 1347.8 ± 9.9 kg/m3 | viscosity (293.15 K): 109 ± 7 mPa·s | mass density (293.15 K): 1343.4 ± 9.8 kg/m3 | mass density (295.15 K): 1341.6 ± 9.8 kg/m3 | viscosity (298.15 K): 85 ± 6 mPa·s | mass density (298.15 K): 1339 ± 9.8 kg/m3 | viscosity (303.15 K): 68 ± 5 mPa·s | mass density (303.15 K): 1334.6 ± 9.7 kg/m3 | viscosity (308.15 K): 55 ± 4 mPa·s | mass density (308.15 K): 1330.2 ± 9.7 kg/m3 | mass density (313.15 K): 1325.8 ± 9.6 kg/m3 | mass density (318.15 K): 1321.5 ± 9.5 kg/m3 | mass density (323.15 K): 1317.1 ± 9.5 kg/m3 | mass density (328.15 K): 1312.8 ± 9.4 kg/m3 | mass density (333.15 K): 1308.5 ± 9.3 kg/m3 | mass density (338.15 K): 1304.2 ± 9.3 kg/m3 | mass density (343.15 K): 1299.8 ± 9.2 kg/m3 | mass density (348.15 K): 1295.6 ± 9.2 kg/m3 | mass density (353.15 K): 1291.3 ± 9.1 kg/m3 | Glass transition temperature: -82 ± 2 °C

CCCCCC[n+]1ccn(C)c1.O=S(=O)([N-]S(=O)(=O)C(F)(F)F)C(F)(F)F
viscosity (278.15 K): 203 ± 14 mPa·s | viscosity (283.15 K): 150 ± 10 mPa·s | mass density (283.15 K): 1386.6 ± 10 kg/m3 | viscosity (288.15 K): 113 ± 8 mPa·s | mass density (288.15 K): 1382.1 ± 10 kg/m3 | viscosity (293.15 K): 87 ± 6 mPa·s | mass density (293.15 K): 1377.5 ± 10 kg/m3 | mass density (295.15 K): 1375.7 ± 10 kg/m3 | viscosity (298.15 K): 68 ± 5 mPa·s | mass density (298.15 K): 1372.9 ± 10 kg/m3 | viscosity (303.15 K): 55 ± 4 mPa·s | mass density (303.15 K): 1368.4 ± 10 kg/m3 | mass density (308.15 K): 1363.8 ± 10 kg/m3 | mass density (313.15 K): 1359.3 ± 10 kg/m3 | mass density (318.15 K): 1354.8 ± 10 kg/m3 | mass density (323.15 K): 1350.3 ± 10 kg/m3 | mass density (328.15 K): 1345.8 ± 9.9 kg/m3 | mass density (333.15 K): 1341.3 ± 9.8 kg/m3 | mass density (338.15 K): 1336.8 ± 9.8 kg/m3 | mass density (343.15 K): 1332.4 ± 9.7 kg/m3 | mass density (348.15 K): 1327.9 ± 9.6 kg/m3 | mass density (353.15 K): 1323.5 ± 9.6 kg/m3

CCCC[S+]1CCCC1.O=S(=O)([N-]S(=O)(=O)C(F)(F)F)C(F)(F)F
viscosity (278.15 K): 284 ± 21 mPa·s | viscosity (283.15 K): 206 ± 15 mPa·s | mass density (283.15 K): 1469 ± 12 kg/m3 | viscosity (288.15 K): 153 ± 11 mPa·s | mass density (288.15 K): 1464.3 ± 12 kg/m3 | viscosity (293.15 K): 117 ± 8 mPa·s | mass density (293.15 K): 1459.7 ± 12 kg/m3 | mass density (295.15 K): 1457.8 ± 12 kg/m3 | viscosity (298.15 K): 91 ± 6 mPa·s | mass density (298.15 K): 1455 ± 12 kg/m3 | viscosity (303.15 K): 73 ± 5 mPa·s | mass density (303.15 K): 1450.4 ± 12 kg/m3 | viscosity (308.15 K): 59 ± 4 mPa·s | mass density (308.15 K): 1445.7 ± 11 kg/m3 | mass density (313.15 K): 1441.1 ± 11 kg/m3 | mass density (318.15 K): 1436.5 ± 11 kg/m3 | mass density (323.15 K): 1431.9 ± 11 kg/m3 | mass density (328.15 K): 1427.3 ± 11 kg/m3 | mass density (333.15 K): 1422.7 ± 11 kg/m3 | mass density (338.15 K): 1418.2 ± 11 kg/m3 | mass density (343.15 K): 1413.6 ± 11 kg/m3 | mass density (348.15 K): 1409.1 ± 11 kg/m3 | mass density (353.15 K): 1404.6 ± 11 kg/m3 | Glass transition temperature: -83 ± 2 °C

CCOCc1n(CC)cc[n+]1C.O=S(=O)([N-]S(=O)(=O)C(F)(F)F)C(F)(F)F
viscosity (278.15 K): 207 ± 15 mPa·s | viscosity (283.15 K): 149 ± 10 mPa·s | viscosity (288.15 K): 111 ± 8 mPa·s | viscosity (293.15 K): 85 ± 6 mPa·s | viscosity (298.15 K): 66 ± 4 mPa·s | viscosity (303.15 K): 53 ± 4 mPa·s | Glass transition temperature: -78 ± 2 °C

CC[P+](CC)(CC)COCCOC.Cc1ncc([N+](=O)[O-])[n-]1
viscosity (278.15 K): 567 ± 45 mPa·s | viscosity (283.15 K): 381 ± 29 mPa·s | viscosity (288.15 K): 264 ± 19 mPa·s | viscosity (293.15 K): 189 ± 13 mPa·s | viscosity (298.15 K): 140 ± 10 mPa·s | viscosity (303.15 K): 106 ± 7 mPa·s | viscosity (308.15 K): 83 ± 6 mPa·s | viscosity (313.15 K): 65 ± 4 mPa·s | viscosity (318.15 K): 53 ± 4 mPa·s | Glass transition temperature: -75 ± 2 °C

CC[P+](CC)(CC)COCCOC.O=S(=O)([N-]S(=O)(=O)C(F)(F)F)C(F)(F)F
viscosity (278.15 K): 84 ± 6 mPa·s | viscosity (283.15 K): 65 ± 4 mPa·s | mass density (283.15 K): 1373.9 ± 10 kg/m3 | viscosity (288.15 K): 51 ± 3 mPa·s | mass density (288.15 K): 1369.4 ± 10 kg/m3 | mass density (293.15 K): 1364.8 ± 10 kg/m3 | mass density (295.15 K): 1363 ± 10 kg/m3 | mass density (298.15 K): 1360.3 ± 10 kg/m3 | mass density (303.15 K): 1355.7 ± 10 kg/m3 | mass density (308.15 K): 1351.2 ± 10 kg/m3 | mass density (313.15 K): 1346.8 ± 9.9 kg/m3 | mass density (318.15 K): 1342.3 ± 9.8 kg/m3 | mass density (323.15 K): 1337.9 ± 9.8 kg/m3 | mass density (328.15 K): 1333.4 ± 9.7 kg/m3 | mass density (333.15 K): 1329 ± 9.6 kg/m3 | mass density (338.15 K): 1324.6 ± 9.6 kg/m3 | mass density (343.15 K): 1320.2 ± 9.5 kg/m3 | mass density (348.15 K): 1315.8 ± 9.4 kg/m3 | mass density (353.15 K): 1311.5 ± 9.4 kg/m3

CC[P+](CC)(CC)COCCOC.O=[N+]([O-])c1cn[n-]c1
viscosity (278.15 K): 309 ± 23 mPa·s | viscosity (283.15 K): 216 ± 16 mPa·s | mass density (283.15 K): 1149.2 ± 7.2 kg/m3 | viscosity (288.15 K): 156 ± 11 mPa·s | mass density (288.15 K): 1145.8 ± 7.1 kg/m3 | viscosity (293.15 K): 116 ± 8 mPa·s | mass density (293.15 K): 1142.4 ± 7.1 kg/m3 | mass density (295.15 K): 1141 ± 7.1 kg/m3 | viscosity (298.15 K): 88 ± 6 mPa·s | mass density (298.15 K): 1139 ± 7 kg/m3 | viscosity (303.15 K): 69 ± 5 mPa·s | mass density (303.15 K): 1135.6 ± 7 kg/m3 | viscosity (308.15 K): 55 ± 4 mPa·s | mass density (308.15 K): 1132.2 ± 7 kg/m3 | mass density (313.15 K): 1128.9 ± 6.9 kg/m3 | mass density (318.15 K): 1125.5 ± 6.9 kg/m3 | mass density (323.15 K): 1122.2 ± 6.8 kg/m3 | mass density (328.15 K): 1118.9 ± 6.8 kg/m3 | mass density (333.15 K): 1115.6 ± 6.8 kg/m3 | mass density (338.15 K): 1112.3 ± 6.7 kg/m3 | mass density (343.15 K): 1109.1 ± 6.7 kg/m3 | mass density (348.15 K): 1105.8 ± 6.6 kg/m3 | mass density (353.15 K): 1102.6 ± 6.6 kg/m3 | Normal melting temperature: -15 ± 2 °C | Glass transition temperature: -76 ± 2 °C
